Experimental data published in patent publication US20230115274A1, “COMPOUNDS AND COMPOSITIONS FOR TREATING CONDITIONS ASSOCIATED WITH STING ACTIVITY” (IFM Due, Inc., priority 2019, published 2023).
pEC50: −log10 of the molar value.

Target: T1, hSTING (Homo sapiens, UniProt Q86WV6, G230A/H232R/R293Q/R71H)
T1 construct: host or cells: THP1-Dual KO-IFNAR2 cells
Test: STING reporter assay (luciferase) in THP1-Dual KO-IFNAR2 cells stimulated with 2′3′cGAMP
Type: cell-based
Settings: 2′3′cGAMP 15 μM, 24 h, class symbols
In short: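 THP1-Dual KO-IFNAR2 cells (2×10E6 cells/mL) were treated with compound at 0.0017-100 μM final plus 15 μM final 2′3′cGAMP delivered with Lipofectamine 2000. After 24 h at 37° C., secreted luciferase in supernatant was read by QUANTI-Luc luminescence and EC50 values were fitted.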

T1 sequence (Q86WV6 whole entry R71H/G230A/H232R/R293Q): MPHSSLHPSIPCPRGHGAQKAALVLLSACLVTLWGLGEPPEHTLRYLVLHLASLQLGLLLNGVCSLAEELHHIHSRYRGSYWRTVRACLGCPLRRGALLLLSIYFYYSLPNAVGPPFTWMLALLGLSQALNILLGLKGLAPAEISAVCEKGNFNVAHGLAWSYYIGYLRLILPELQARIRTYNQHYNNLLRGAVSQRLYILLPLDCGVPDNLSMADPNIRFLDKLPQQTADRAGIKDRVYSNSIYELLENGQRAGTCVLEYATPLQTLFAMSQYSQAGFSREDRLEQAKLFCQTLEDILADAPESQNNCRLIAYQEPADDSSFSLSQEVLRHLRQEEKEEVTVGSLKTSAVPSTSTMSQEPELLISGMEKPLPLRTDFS

pEC50 | Structure (SMILES)
6.70 to 7.40 | Cc1cc(NC(=O)Nc2c[nH]c3ncc(F)cc23)cnc1N1CCC(F)(F)CC1 [Compound 198, 1-(6-(4,4-difluoropiperidin-1-yl)-5-methylpyridin-3-yl)-3-(5-fluoro-1H-pyrrolo[2,3-b]pyridin-3-yl)urea]
5.30 to 6.00 | COc1cnc2[nH]cc(NC(=O)Nc3cnc(C4CCC(F)(F)CC4)c(C)c3)c2c1 [Compound 174, 1-(6-(4,4-difluorocyclohexyl)-5-methylpyridin-3-yl)-3-(5-methoxy-1H-pyrrolo[2,3-b]pyridin-3-yl)urea]
6.00 to 6.70 | N#Cc1cc(NC(=O)Nc2c[nH]c3c(F)cncc23)ccc1C1CCC(F)(F)CC1 [Compound 149, 1-(3-cyano-4-(4,4-difluorocyclohexyl)phenyl)-3-(7-fluoro-1H-pyrrolo[3,2-c]pyridin-3-yl)urea]
5.30 to 6.00 | Cc1cc(NC(=O)Nc2c[nH]c3c(F)cncc23)cnc1N1CCC(F)(F)CC1 [Compound 172, 1-(6-(4,4-difluoropiperidin-1-yl)-5-methylpyridin-3-yl)-3-(7-fluoro-1H-pyrrolo[3,2-c]pyridin-3-yl)urea]
6.00 to 6.70 | O=C(Nc1cc(Cl)c(N2CCC(F)(F)CC2)cn1)Nc1c[nH]c2ncc(F)cc12 [Compound 186, 1-(4-chloro-5-(4,4-difluoropiperidin-1-yl)pyridin-2-yl)-3-(5-fluoro-1H-pyrrolo[2,3-b]pyridin-3-yl)urea]
6.00 to 6.70 | COc1ccc2[nH]cc(NC(=O)Nc3cnc(N4CCC5(CC4)CC(F)(F)C5)c(Cl)c3)c2n1 [Compound 203, 1-(5-chloro-6-(2,2-difluoro-7-azaspiro[3.5]nonan-7-yl)pyridin-3-yl)-3-(5-methoxy-1H-pyrrolo[3,2-b]pyridin-3-yl)urea]
4.00 to 5.30 | O=C(Nc1ccc(C2CCC(F)(F)CC2)nc1)Nc1c[nH]c2ncc(-c3cccc(CO)c3)cc12 [Compound 105, 1-(6-(4,4-difluorocyclohexyl)pyridin-3-yl)-3-(5-(3-(hydroxymethyl)phenyl)-1H-pyrrolo[2,3-b]pyridin-3-yl)urea]
5.30 to 6.00 | COc1ccc2[nH]cc(NC(=O)Nc3cnc(N4CC(F)(F)C4)c(F)c3)c2n1 [Compound 232, 1-(6-(3,3-difluoroazetidin-1-yl)-5-fluoropyridin-3-yl)-3-(5-methoxy-1H-pyrrolo[3,2-b]pyridin-3-yl)urea]
5.30 to 6.00 | CC(O)c1cc(NC(=O)Nc2c[nH]c3ncc(F)cc23)cnc1N1CCC(F)(F)CC1 (stereo not drawn) [Compound 138, 1-(6-(4,4-difluoropiperidin-1-yl)-5-(1-hydroxyethyl)pyridin-3-yl)-3-(5-fluoro-1H-pyrrolo[2,3-b]pyridin-3-yl)urea]
6.00 to 6.70 | COc1ccc2[nH]cc(NC(=O)Nc3cnc(C4CC(F)(F)C4)c(Cl)c3)c2n1 [Compound 243, 1-(5-chloro-6-(3,3-difluorocyclobutyl)pyridin-3-yl)-3-(5-methoxy-1H-pyrrolo[3,2-b]pyridin-3-yl)urea]
4.00 to 5.30 | O=C(Nc1cnc(Cl)c(C2CCC(F)(F)CC2)c1)Nc1c[nH]c2cccnc12 [Compound 214, 1-(6-chloro-5-(4,4-difluorocyclohexyl)pyridin-3-yl)-3-(1H-pyrrolo[3,2-b]pyridin-3-yl)urea]
5.30 to 6.00 | Cc1cc(NC(=O)Nc2c[nH]c3cccnc23)cnc1N1CCC(F)(F)CC1 [Compound 146, 1-(6-(4,4-difluoropiperidin-1-yl)-5-methylpyridin-3-yl)-3-(1H-pyrrolo[3,2-b]pyridin-3-yl)urea]
6.00 to 6.70 | O=C(Nc1cnc(C2CCC(F)(F)CC2)c(F)c1)Nc1c[nH]c2cccnc12 [Compound 234, 1-(6-(4,4-difluorocyclohexyl)-5-fluoropyridin-3-yl)-3-(1H-pyrrolo[3,2-b]pyridin-3-yl)urea]
6.00 to 6.70 | COc1cc(NC(=O)Nc2c[nH]c3ncc(F)cc23)cnc1C1CCC(F)(F)CC1 [Compound 164, 1-(6-(4,4-difluorocyclohexyl)-5-methoxypyridin-3-yl)-3-(5-fluoro-1H-pyrrolo[2,3-b]pyridin-3-yl)urea]
6.70 to 7.40 | N#Cc1cc(NC(=O)Nc2c[nH]c3ncc(F)cc23)cnc1C1CCC(F)(F)CC1 [Compound 155, 1-(5-cyano-6-(4,4-difluorocyclohexyl)pyridin-3-yl)-3-(5-fluoro-1H-pyrrolo[2,3-b]pyridin-3-yl)urea]
6.00 to 6.70 | COc1ccc2[nH]cc(NC(=O)Nc3cnc(C4CCC(F)(F)CC4)c(F)c3)c2n1 [Compound 229, 1-(6-(4,4-difluorocyclohexyl)-5-fluoropyridin-3-yl)-3-(5-methoxy-1H-pyrrolo[3,2-b]pyridin-3-yl)urea]
6.00 to 6.70 | COc1cnc2[nH]cc(NC(=O)Nc3cnc(N4CCC(F)(F)CC4)c(F)c3)c2c1 [Compound 184, 1-(6-(4,4-difluoropiperidin-1-yl)-5-fluoropyridin-3-yl)-3-(5-methoxy-1H-pyrrolo[2,3-b]pyridin-3-yl)urea]
5.30 to 6.00 | O=C(Nc1cnc(C2CCN(CC(F)(F)F)C2)c(Cl)c1)Nc1c[nH]c2cccnc12 (stereo not drawn) [Compound 216, 1-(5-chloro-6-(1-(2,2,2-trifluoroethyl)pyrrolidin-3-yl)pyridin-3-yl)-3-(1H-pyrrolo[3,2-b]pyridin-3-yl)urea]
4.00 to 5.30 | O=C(Nc1ccc(N2CCC(F)(F)CC2)nn1)Nc1c[nH]c2ncc(F)cc12 [Compound 193, 1-(6-(4,4-difluoropiperidin-1-yl)pyridazin-3-yl)-3-(5-fluoro-1H-pyrrolo[2,3-b]pyridin-3-yl)urea]
5.30 to 6.00 | CCc1ccc2[nH]cc(NC(=O)Nc3cnc(N4CCC(F)(F)CC4)c(C)c3)c2n1 [Compound 139, 1-(6-(4,4-difluoropiperidin-1-yl)-5-methylpyridin-3-yl)-3-(5-ethyl-1H-pyrrolo[3,2-b]pyridin-3-yl)urea]
4.00 to 5.30 | O=C(Nc1ccc(C2CCC(F)(F)CC2)nc1)Nc1cn(Cc2ccccc2)c2ncc(F)cc12 [Compound 104, 1-(1-benzyl-5-fluoro-1H-pyrrolo[2,3-b]pyridin-3-yl)-3-(6-(4,4-difluorocyclohexyl)pyridin-3-yl)urea]

Same assay, conditions: 2′3′cGAMP 15 μM, 24 h, numeric bounds

pEC50 | Structure (SMILES)
< 4.52 | Cc1cc(N2CCC(F)(F)CC2)cnc1NC(=O)Nc1c[nH]c2ncc(F)cc12 [Compound 177, 1-(5-(4,4-difluoropiperidin-1-yl)-3-methylpyridin-2-yl)-3-(5-fluoro-1H-pyrrolo[2,3-b]pyridin-3-yl)urea]
< 4.52 | O=C(Nc1ncc(N2CCC(F)(F)CC2)cc1Cl)Nc1c[nH]c2ncc(F)cc12 [Compound 178, 1-(3-chloro-5-(4,4-difluoropiperidin-1-yl)pyridin-2-yl)-3-(5-fluoro-1H-pyrrolo[2,3-b]pyridin-3-yl)urea]
< 4.52 | O=C(Nc1ccc(C2CCC(F)(F)CC2)nc1)Nc1cn(C2CCCNC2)c2ncc(F)cc12 (stereo not drawn) [Compound 123, 1-(6-(4,4-difluorocyclohexyl)pyridin-3-yl)-3-(5-fluoro-1-(piperidin-3-yl)-1H-pyrrolo[2,3-b]pyridin-3-yl)urea]
